Reference: US12497396B2, “Nitrogen-containing heterocyclic derivatives, method therefor and application therefor as inhibitors of KRAS G12C for the treatment of cancers” (SHANGHAI HANSOH BIOMEDICAL CO., LTD., priority 2019, dated 2025)

Test system: human lung cancer NCI-H358 cell xenograft
Assay: In vivo pharmacodynamics on human lung cancer NCI-H358 cell xenograft tumor model
Design: species or system BALB/c nude mice
Procedure: • BALB/c nude mice, 6-8 weeks old, female, purchased from Shanghai Xipuer-Bikai Experimental Animal Co., Ltd. 6.3.2 Cell Culture and Cell Suspension Preparation • 1) MiaPaca-2 cells were taken out from the cell bank and resuscitated with DMEM medium (DMEM+10% FBS), the resuscitated cells were placed in a cell culture flask (labeled with cell type, date, name of cultured person, etc.) and cultured in a CO2 incubator (incubator temperature was 37° C., CO2 concentration was 5%) (the method of resuscitating NCI-H358 cells was the same as MiaPaca-2 cells in test embodiment 5, and the culture medium was changed to RPMI-1640 medium). • 2) Passage was conducted every three to five days, and the cells was continued to be cultured in CO2 incubator after passage. The process was repeated until the cell count meets the in vivo pharmacodynamic requirements. • 3) MiaPaca-2 cells were collected and counted by automatic cell counter, according to the counting results, the cells were re-suspended with PBS and Matrigel (ratio was 1:1) to make cell suspension (cell density was 5×10^7/mL), then placed in a ice box for use (NCI-H358 cells were re-suspended with PBS without adding Matrigel, cell density was 1×10^8/mL). 6.3.3 Sample Preparation: • 1) Solvent: solvent (0.5% CMC-Na+1% Tween 80), storage condition: 4° C.
0.5 g of CMC-Na was weighted, dissolved in ddH2O, then 1.0 mL of Tween 80 was added and the mixture was stirred to mix well, and the volume was finally set to 100 mL. • 2) Compound to be tested (10 mg/kg) was prepared:
8.42 mg of AMG510 compound was weighted, 8.260 mL of solvent was added, a uniform solution was obtained by ultrasound, vortexing and stirring.
7.81 mg of embodiment compound 165-1 was weighted, 7.654 mL of solvent was added, a uniform solution was obtained by ultrasound, vortexing and stirring.
• 1) Before inoculation, nude mice were labeled with disposable universal ear tags of rats and mice; • 2) when inoculating, the cell suspension was mixed well, 0.1-1 mL cell suspension was extracted with a 1 mL syringe, bubbles were removed, and then the syringe was put on an ice bag for later use; • 3) the nude mice was held with left hand, the right back of nude mice near the right shoulder (inoculation site) was disinfected with 75% alcohol, and inoculation was started after 30 seconds; • 4) the experimental nude mice were inoculated in turn (each mouse was inoculated with 0.1 mL of cell suspension); 6.3.4 Tumor-Bearing Mouse were Measured, Grouped, and Administered: • 1) According to the tumor growth, the tumor was measured on the 18th day after inoculation, and the tumor size was calculated. tumor volume (mm^3)=length (mm)×width (mm)×width (mm)/2 Tumor volume calculation: • 2) The tumor-bearing mice were grouped according to their body weight and tumor size using a randomized grouping method. • 3) According to the grouping results, the administration of the test drug was started (administration method: oral administration; administration dose: 10 mg/kg; administration volume: 10 mL/kg; administration frequency: once a day; administration period: 21 days; solvents: 0.5% CMC/1% Tween 80). • 4) The tumor was measured and weighed twice a week after the test drug was started to be given. • 5) After the experiment, all animals were euthanized. • 6) Data was processed with software such as Excel. […]

C=CC(=O)N1C[C@H](C)N(c2nc(=O)n(-c3c(SC)ccnc3C(C)C)c3nc(-c4c(N)ccc(Cl)c4F)c(Cl)cc23)C[C@H]1C (single isomer, unassigned) [Embodiment 165-1]
TGI (%) Day 15 (Day 15, 10 mpk oral once a day): 67.41% | tumor volume (mm^3, Mean ± SD) Day 15 (Day 15, 10 mpk oral once a day): 267 ± 155 mm^3 | ΔT/ΔC(%) Day 15 (Day 15, 10 mpk oral once a day): 32.59% | tumor volume (mm^3, Mean ± SD) Day 0 (baseline Day 0, 10 mpk oral once a day): 203 ± 74 mm^3
